This note sets out measurements from US9193740B2, “Bismacrocyclic compounds as hepatitis C virus inhibitors” (Enanta Pharmaceuticals, Inc., priority 2009, dated 2015).

In general, EC50 refers to the midpoint of the concentration-response curve.

The subject of this experiment is HCV 1b genotype replicon. Kind of experiment: Cell-based HCV replicon assay (qRT-PCR or luciferase), genotype 1b. Particulars: Hepatitis C virus. The protocol: Cell-Based Replicon Assay
The anti-HCV activity of the compounds is determined using the cell-based replicon assay and the HCV replication assay described in US Publication No: 2010/0003214, incorporated herein by reference in its entirety.
HCV Replicon Assay—Luciferase
Since clinical drug resistance often develops in viral infections following single agent therapies, there is a need to assess the additive, antagonistic, or synergistic properties of combination therapies. We use the HCV replicon system to assess the potential use of the compound of the present invention or in combination therapies with Interferon alpha, cyclosporine analogs and inhibitors targeting other HCV proteins. The acute effects of a single or combinations of drugs are studied in the “Huh-luc/neo-ET” replicon with each chemical agent titrated in an X or Y direction in a 6 point two-fold dilution curve centered around the EC50 of each drug. […] Using this method, the combination data are analyzed for antagonistic, additive, or synergistic combination effects across the entire combination surface created by the diluted compounds in combination. […]
(Replicon systems follow genome replication, usually without infectious particles.)

As for `O=C1N[C@H]2CCCCC/C=C\[C@@H]3C[C@@]3(C(=O)NS(=O)(=O)C3CC3)NC(=O)[C@@H]3C[C@H](CN3C2=O)Oc2nc3ccccc3nc2-c2cccc(c2)OCC(F)(F)CO1` [Example 2], the EC50 is < 1 nM. Consider `CC1(C)CC/C=C/C(F)(F)c2nc3ccccc3nc2O[C@@H]2C[C@H]3C(=O)N[C@]4(C(=O)NS(=O)(=O)C5CC5)C[C@H]4/C=C\CCCCC[C@H](NC(=O)OC1)C(=O)N3C2` [Example 8], for which the EC50 is < 1 nM.
